Data: BigSolDB 2.1

Nc1ccc(S(=O)(=O)Nc2ccc(Cl)nn2)cc1
solubility (mole fraction)
Conditions | in 1,4-dioxane | in acetone | in acetonitrile | in ethanol | in ethyl acetate | in isopropanol | in methanol | in n-butanol | in water
283.15 K | 0.0994 | 0.0647 | 0.0187 | 0.00381 | 0.0135 | 0.0031 | 0.00473 | 0.00335 | 2.25e-05
288.15 K | 0.106 | 0.0715 | 0.0193 | 0.00432 | 0.0141 | 0.00345 | 0.00513 | 0.00372 | 3.31e-05
293.15 K | 0.116 | 0.0804 | 0.0202 | 0.00484 | 0.0152 | 0.00382 | 0.00569 | 0.00421 | 4.39e-05
298.15 K | 0.129 | 0.0908 | 0.0213 | 0.00543 | 0.0165 | 0.00429 | 0.00627 | 0.00474 | 5.9e-05
303.15 K | 0.143 | 0.102 | 0.0224 | 0.00616 | 0.0179 | 0.00476 | 0.00696 | 0.00531 | 7.53e-05
308.15 K | 0.159 | 0.116 | 0.0239 | 0.00689 | 0.0198 | 0.00538 | 0.00779 | 0.00596 | 9.52e-05
313.15 K | 0.179 | 0.131 | 0.0258 | 0.00777 | 0.0219 | 0.00614 | 0.00867 | 0.00676 | 0.000119
318.15 K | 0.204 | 0.147 | 0.0283 | 0.00879 | 0.0244 | 0.00702 | 0.00966 | 0.00768 | 0.000149
323.15 K | 0.235 | 0.165 | 0.0312 | 0.0101 | 0.0268 | 0.00792 | 0.0109 | 0.00867 | 0.000184
